{
  "source": "paper PMC4658304",
  "about": "(Nuclear medicine and biology, 2015)",
  "key": {"[1]": {"assay": "Stability in sodium phosphate buffer", "type": "physicochemical", "details": "sodium phosphate buffer 0.15 M pH 7.4, 57 min, room temperature, n = 4"}, "[2]": {"assay": "Stability of formulated radioligand in saline containing ethanol", "type": "physicochemical", "details": "saline containing ethanol (10% v/v), 1 h, room temperature, HPLC"}, "Plasma free fraction": {"assay": "Plasma free fraction", "type": "in vitro ADME", "details": "rhesus monkey plasma, pre-blocked condition (JNJ16259685 3 mg/kg i.v.), n = 3"}, "[3]": {"assay": "Stability in monkey whole blood and plasma", "type": "in vitro ADME", "details": "30 min, room temperature"}, "[4]": {"assay": "Emergence of radiometabolites in monkey plasma", "type": "in vivo, rhesus monkey"}, "mGluR1 [5]": {"molecular_target": "T1, mGluR1 (Macaca mulatta, UniProt I2CU04)", "T1 sequence (I2CU04 19-1195)": "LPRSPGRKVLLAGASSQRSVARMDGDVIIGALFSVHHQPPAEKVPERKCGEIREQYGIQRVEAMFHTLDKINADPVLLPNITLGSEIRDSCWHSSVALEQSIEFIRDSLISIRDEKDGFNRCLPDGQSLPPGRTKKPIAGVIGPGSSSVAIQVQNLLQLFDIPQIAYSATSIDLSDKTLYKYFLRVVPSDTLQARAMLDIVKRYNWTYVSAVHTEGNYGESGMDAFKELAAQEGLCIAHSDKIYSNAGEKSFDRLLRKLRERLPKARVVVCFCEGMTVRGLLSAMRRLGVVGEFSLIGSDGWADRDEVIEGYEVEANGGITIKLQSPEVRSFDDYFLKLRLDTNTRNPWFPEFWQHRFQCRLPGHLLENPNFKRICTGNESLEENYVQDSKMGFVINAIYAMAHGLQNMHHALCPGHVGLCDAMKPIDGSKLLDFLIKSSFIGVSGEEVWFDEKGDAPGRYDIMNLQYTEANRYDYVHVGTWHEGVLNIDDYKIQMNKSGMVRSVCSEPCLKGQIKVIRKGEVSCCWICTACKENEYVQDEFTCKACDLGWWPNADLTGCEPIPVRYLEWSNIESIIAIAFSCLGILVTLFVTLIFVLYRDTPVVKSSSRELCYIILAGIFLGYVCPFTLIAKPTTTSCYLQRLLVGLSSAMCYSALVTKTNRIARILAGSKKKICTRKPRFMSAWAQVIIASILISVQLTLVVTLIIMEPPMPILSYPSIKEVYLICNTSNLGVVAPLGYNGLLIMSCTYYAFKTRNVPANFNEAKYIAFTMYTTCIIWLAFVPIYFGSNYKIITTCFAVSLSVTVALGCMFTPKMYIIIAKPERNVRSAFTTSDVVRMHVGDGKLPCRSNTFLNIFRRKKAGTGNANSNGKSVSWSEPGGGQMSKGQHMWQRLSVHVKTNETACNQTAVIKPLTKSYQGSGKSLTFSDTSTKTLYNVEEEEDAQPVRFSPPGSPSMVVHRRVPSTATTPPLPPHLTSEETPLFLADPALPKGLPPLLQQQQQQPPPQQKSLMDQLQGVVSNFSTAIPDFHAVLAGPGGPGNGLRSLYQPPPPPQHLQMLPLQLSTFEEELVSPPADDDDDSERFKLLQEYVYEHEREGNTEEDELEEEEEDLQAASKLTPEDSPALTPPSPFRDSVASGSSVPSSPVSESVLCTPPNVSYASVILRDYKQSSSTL", "details": "baseline"}, "[6]": {"details": "monkey brain homogenates, 30 min, room temperature"}, "[7]": {"details": "cited from earlier work"}, "mGluR1 [8]": {"molecular_target": "T1, mGluR1", "assay": "Two-tissue compartmental modeling of PET data"}, "mGluR1 [9]": {"molecular_target": "T1, mGluR1", "details": "cited from earlier work; for peak uptake in mGluR1-rich cerebellum: rhesus monkey"}, "mGluR1 [10]": {"system": "mGluR1", "details": "read-out: IC50 (mGluR1 affinity); mGluR1 radioligand affinity; cited from earlier work"}},
  "note": "“And” between values parts separate entries of the source, which are not always exact repeats. Equal values may be shown once. Read-outs that look alike come from different tables or passages of the source.",
  "data": [
    {"smiles": "CNc1cc(-c2csc(N(C)C(=O)c3ccc(F)cc3)n2)ncn1", "note": "[[^11C]FIMX, [carbonyl-^11C]4-Fluoro-N-methyl-N-(4-(6-(methylamino)pyrimidin-4-yl)thiazol-2-yl)benzamide]", "values": [
      {"measurement": "remaining fraction of original radiochemical purity in buffer", "setting": "[1]", "value": "79.1 ± 3.3", "unit": "%"},
      {"measurement": "unchanged radioligand in formulation", "setting": "[2]", "value": "> 97", "unit": "%"},
      {"measurement": "plasma free fraction (fP)", "setting": "Plasma free fraction", "value": "0.042 ± 0.003"},
      {"measurement": "unchanged radioligand in plasma", "setting": "[3]; monkey plasma", "value": 91, "unit": "%"},
      {"measurement": "unchanged radioligand in whole blood", "setting": "[3]; monkey whole blood", "value": 92, "unit": "%"},
      {"measurement": "percentage of total plasma radioactivity represented by parent", "setting": "[4]; baseline, 10 min after i.v. injection", "value": 31, "unit": "%"},
      {"measurement": "percentage of total plasma radioactivity represented by parent", "setting": "[4]; baseline, 30 min after i.v. injection", "value": 21, "unit": "%"},
      {"measurement": "percentage of total plasma radioactivity represented by parent", "setting": "[4]; preblocked condition, 10 min after i.v. injection", "value": 43, "unit": "%"},
      {"measurement": "percentage of total plasma radioactivity represented by parent", "setting": "[4]; preblocked condition, 30 min after i.v. injection", "value": 31, "unit": "%"},
      {"measurement": "peak radioactivity uptake in frontal cortex", "setting": "mGluR1 [5]", "value": 4.23, "unit": "SUV"},
      {"measurement": "peak radioactivity uptake in hippocampus", "setting": "mGluR1 [5]", "value": 4.47, "unit": "SUV"},
      {"measurement": "peak radioactivity uptake in occipital cortex", "setting": "mGluR1 [5]", "value": 3.67, "unit": "SUV"},
      {"measurement": "peak radioactivity uptake in thalamus", "setting": "mGluR1 [5]", "value": 6.00, "unit": "SUV"},
      {"measurement": "cerebellum radioactivity level at 85 min", "setting": "mGluR1 [5]; 85 min after injection", "value": 5.74, "unit": "SUV"},
      {"measurement": "decrease of cerebellum radioactivity from peak", "setting": "mGluR1 [5]; at 85 min after injection", "value": 32, "unit": "%"},
      {"measurement": "time of peak regional brain radioactivity uptake", "setting": "mGluR1 [5]; i.v.", "value": "around 12.5 min"},
      {"measurement": "peak radioactivity uptake in cerebellum", "setting": "mGluR1 [5]; receptor-rich cerebellum", "value": "8.50 SUV and 8.5 SUV"},
      {"measurement": "unchanged radioligand in brain homogenates", "setting": "[6]", "value": 99.4, "unit": "%"},
      {"measurement": "logD obtained without correction for instability", "setting": "[7]", "value": 2.52},
      {"measurement": "imaging time after which VT appeared stable in all brain regions", "setting": "mGluR1 [8]; baseline", "value": 60, "unit": "min"},
      {"measurement": "imaging time by which VT is within 10% of terminal value", "setting": "mGluR1 [8]; baseline scans, two-tissue compartment model", "value": "≤ 40", "unit": "min"},
      {"measurement": "reduction of VT in cerebellum by preblock", "setting": "mGluR1 [8]; baseline vs preblock with JNJ16259685", "value": "~90", "unit": "%"},
      {"measurement": "VT in cerebellum", "setting": "mGluR1 [8]; rhesus monkey cerebellum, baseline", "value": 13, "unit": "mL/cm^3"}
    ]},
    {"smiles": "Cc1ccc(C(=O)N(C)c2nc(-c3cc(NC(C)C)ncn3)cs2)cc1", "note": "[[^11C]ITDM, [^11C]N-[4-[6-(isopropylamino)pyrimidin-4-yl]-1,3-thiazol-2-yl]-4-methyl-N-methylbenzamide]", "values": [
      {"measurement": "peak uptake in mGluR1-rich cerebellum", "setting": "mGluR1 [9]", "value": "< 1.3", "unit": "SUV"}
    ]},
    {"smiles": "COc1ccc(C(=O)N(C)c2nc(-c3cc(NC(C)C)ncn3)cs2)cc1", "note": "[[^11C]ITMM, [^11C]N-[4-[6-(isopropylamino)pyrimidin-4-yl]-1,3-thiazol-2-yl]-4-methoxy-N-methylbenzamide]", "values": [
      {"measurement": "peak uptake in mGluR1-rich cerebellum", "setting": "mGluR1 [9]", "value": "< 1.3", "unit": "SUV"}
    ]},
    {"smiles": "CNc1cc(-c2csc(N(C)C(=O)c3ccc([18F])cc3)n2)ncn1", "note": "[[^18F]FIMX, [^18F]4-fluoro-N-methyl-N-(4-(6-(methylamino)pyrimidin-4-yl)thiazol-2-yl)benzamide]", "values": [
      {"measurement": "IC50", "setting": "mGluR1 [10]", "value": 1.8, "unit": "nM"},
      {"measurement": "decrease of cerebellum radioactivity from peak", "setting": "mGluR1 [9]; at 90 min after injection", "value": 37, "unit": "%"}
    ]}
  ]
}
